Test results: patent US20110136163A1, “Method of Toxicological Assessment” (priority 2008, published 2011)
Entries after “also recorded” stand apart in the source; their conditions may differ. *1 amine or outer side, *2 acyl side, *3 side chain or, on linkers, in order; H or OH if unused. Where a SMILES comes first, the peptide text is derived from it. Bridges are numbered along the chain shown (N, C = ends). [ ]: non-standard residue; d: D form. Adda = CO[C@@H](Cc1ccccc1)[C@@H](C)/C=C(C)/C=C/[C@H](N[*:1])[C@H](C)C(=O)[*:2]; dAsp(3S-Me) = C[C@H](C(=O)[*:3])[C@@H](N[*:1])C(=O)[*:2]; d(γGlu) = O=C(O)[C@@H](CCC(=O)[*:2])N[*:1]; NMeDha = C=C(NC)C(=O)O

Legend:
[1] = test system: isolated rat liver mitochondria; format: biochemical
Jurkat cells [2] = assay: ATP content in Jurkat cells, with and without transport reagent; format: cell-based
Description: A number of other transport reagents, toxicants, cell models and parameters of cellular function were examined, using the general assay format described in Example 1.

HepG2 cells [3] = assay: Western blot of protein phosphorylation (anti-phospho-serine) in HepG2 cells; format: cell-based
Experimental: FIG. 2. Western blot analysis of HepG2 cells treated with MCLR in the presence of EndoPorter for 24 h, primary antibodies used were anti-phospho-serine. Blot analysis show dependence of protein phosphorylation on MCLR concentration.
A number of other markers of cellular function were also investigated for their alterations in response to MCLR treatment of cells in the presence of transport reagent. […] Metabolic parameters such as intracellular levels of ATP and NAD(P)H were seen unchanged.

cells = format: cell-based
Jurkat cells [4] = assay: O2 consumption toxicity assay in Jurkat cells, with and without transport reagent; format: cell-based
HepG2 cells [5] = assay: O2 consumption toxicity assay in HepG2 cells, with and without transport reagent; format: cell-based
Primary rat hepatocytes = format: cell-based

Row | Compound | Effect on O2 consumption of isolated mitochondria [1] | ATP content, observed effect (Jurkat cells [2]) | Protein phosphorylation/dephosphorylation in Western blots (HepG2 cells [3]) | Intracellular level of ATP (cells) | Intracellular level of NAD(P)H (cells) | Concentration above which significant effects on O2 consumption were seen (Jurkat cells [4]) | O2 consumption / toxicity, observed effect (Jurkat cells [4]) | O2 consumption, observed effect (Jurkat cells [4]) | Concentration above which significant effects on O2 consumption were seen (HepG2 cells [5]) | Peak of bell-shape dose response of O2 consumption (HepG2 cells [5]) | Concentration at which parameters of cellular function were affected (Primary rat hepatocytes) [nM] | O2 consumption, observed effect (Primary rat hepatocytes) | IC50 (Primary rat hepatocytes; read-out: O2 consumption, IC50) [nM]
1 | C=C1C(=O)N[C@H](C)C(=O)N[C@@H](CC(C)C)C(=O)N[C@@H](C(=O)O)[C@H](C)C(=O)N[C@@H](CCCNC(=N)N)C(=O)N[C@@H](/C=C/C(C)=C/[C@H](C)[C@H](Cc2ccccc2)OC)[C@H](C)C(=O)N[C@@H](C(=O)O)CCC(=O)N1C [MCLR, Microcystin-LR] (R[Adda][d(γGlu)][NMeDha][dA]L[dAsp(3S-Me)]-OH; lactam N-7) | uncoupling effect | No effect at 10 μM; also recorded: Dose dependent decrease | altered protein phosphorylation/dephosphorylation | unchanged | unchanged | above 0.1 nM | strong toxicity; also recorded: respiration decreased | no detectable toxicity; also recorded: No effect at 10 μM | above 0.1 nM | around 0.5 nM | ≥ 0.5 | dose-dependent decreases in oxygen consumption | 2.74
2 | Aflatoxin B1 |  |  |  |  |  |  | increased toxicity |  |  |  |  |  | 
